According to US20040176274A1, “Analgesic methods using endothelin receptor ligands” (priority 2001, published 2004):
Where “and” joins values, the source holds several entries; their conditions need not be identical. Identical values can stand only once. Like-named read-outs stand apart in the source and are kept apart here. *1 amine or outer side, *2 acyl side, *3 side chain or, on linkers, in order; H or OH if unused. Where no end group is shown, it is not given here. Suc = O=C(CCC(=O)[*:2])[*:1]

Columns and labels:
[1] = system: ET-1-induced pain in the rat plantar hindpaw; format: in vivo
Excerpt: These examples are provided to illustrate the invention and should not be construed as limiting. ETA and ETB Receptors Mediate ET-1-induced Pain in the Rat Plantar Hindpaw An ET-1 animal model of acute pain was used to investigate the signaling pathways involved in endothelin receptor-mediated nociception. In this model system, acute pain was induced under sevoflurane anesthesia by subcutaneous ET-1 injection into the rat plantar hindpaw after 40 seconds of limb cooling. Injections were given either as a single 20 μl bolus for single compound or co-administration studies, or as two 10 μl injections separated by 1-2 minutes for pre-treatment studies, and were delivered into the mid plantar paw approximately 1 cm distal to the heel. Repetitive and spontaneous flinching of the ipsilateral hindpaw were counted in 5 minute blocks, beginning 5 minutes after ET-1 injection, for 75 minutes. […] Data was reported as the mean±s.e.m.

wild-type control mice = assay: ET-1 pain behavior (biting and licking) in wild-type control mice; format: in vivo; conditions: ET-1 100 pmol s.c. mouse plantar hindpaw, 30 minutes
Method: (§1) The duration of biting and licking events was used as a measure of pain responsiveness following subcutaneous administration of ET-1(100 pmol) into the mouse plantar hindpaw. The duration of these events was assessed in five minute periods for 30 minutes after ET-1 injection.

GIRK2 knockout mice = assay: ET-1 pain behavior (biting and licking) in GIRK2 knockout mice; format: in vivo; conditions: ET-1 100 pmol s.c. mouse plantar hindpaw, 30 minutes
Method: as §1

sciatic nerve C-fibers = assay: Electrophysiological recording of spike activity in nociceptive C-fibers after plantar hindpaw injection; format: in vivo, rat; conditions: ET-1 2 nmoles, IRL-1620 2 nmoles; s.c. plantar hindpaw injection
Excerpt: FIG. 5 is a representative series of electrophysiological recordings of C-fiber activity following subcutaneous plantar hindpaw injections of (A) ET-1 alone, (B) ET-1 and IRL-1620, and (C) ET-1, IRL-1620, and naloxone. The arrow in (A) indicates the time of ET-1 injection. The first and second arrows in (B) indicate the time of IRL-1620 and IRL-1620/ET-1 injections, respectively. The first and second arrows in (C) indicate the time of IRL-1620/naloxone and ET-1/IRL-1620/naloxone injections, respectively.
In order to confirm that ETB receptor activation inhibits the ET-1-induced pain response and that the inhibition is mediated through an opioid-sensitive mechanism, the spike response of IRL-1620 alone, and in combination with naloxone, were studied in nociceptive C-fibers. Spike activity was recorded in sciatic nerve C-fibers from twelve animals following subcutaneous plantar hindpaw injections of ET-1. The mean and maximum response frequencies following injection of ET-1 alone (2 nmoles) are 0.32±0.07 imp/s and 4.17+0.17 imp/s, respectively.

[2] = system: cultured adult human primary keratinocytes; assay: β-endorphin release from cultured keratinocytes (radioimmunoassay); format: cell-based
Method: Cultured adult human primary keratinocytes, obtained during facelift procedures, were used to confirm that keratinocytes are the source of the extracellular β-endorphin that mediates ETB receptor-induced analgesia. Cultured keratinocytes were transferred to PBS and incubated in the presence of either 10 or 200 nM IRL-1620 for thirty or sixty minutes. Subsequently, the β-endorphin concentration in the PBS was measured by radioimmunoassay. In the absence of IRL-1620, the basal level of β-endorphin was 1.76±0.08 μg/ml. […] The intracellular concentration of β-endorphin in similarly treated cultured keratinocytes was 108±48 pg β-endorphin per 10^5 cells.

[3] = entire 75 minute observation period, dosages ET-1 2 nmol, BQ-788 60 nmol, IRL-1620 2 nmol, naloxone 55 nmol, tertiapin 20 pmol, mean ± s.e.m.
[4] = s.c. rat plantar hindpaw, dosages ET-1 2 nmol, BQ-788 60 nmol, IRL-1620 2 nmol, naloxone 55 nmol, tertiapin 20 pmol, mean ± s.e.m.
[5] = without ET-1, BQ-788 60 nmol bolus or 2 x 30 nmol, naloxone 55 nmol, tertiapin 20 pmol
[6] = 0.5 μg CL prior to ET-1 (2 nmol), 75 minute observation period, ET-1 line = control
[7] = 0.5 μg CL s.c. two minutes prior to ET-1 (2 nmol), ET-1 line = control
[8] = 0.5 μg CL, or equal volume of water (ET-1 + IRL-1620 line), prior to co-administration of ET-1 (2 nmol) and IRL-1620 (2 nmol)
[9] = CTOP 18.8 nmoles co-injected with ET-1 and IRL-1620
[10] = ET-1 4 nmol, s.c. rat plantar hindpaw
[11] = ET-1 6 nmol, s.c. rat plantar hindpaw
[12] = IRL-1620 4 nmol, alone or prior and co-administered with ET-1 2 nmol

CCCC[C@@H](NC(=O)[C@@H](Cc1cn(C(=O)OC)c2ccccc12)NC(=O)[C@H](CC(C)(C)C)NC(=O)N1[C@H](C)CCC[C@@H]1C)C(=O)O (relative stereo) [BQ-788, N-cis-2,6-dimethylpiperidinocarbonyl-L-gamma-methylleucyl-D-1-methoxycarbonyltryptophanyl-D-Nle]
Total Number of Flinches [1, 3]: 17.3 ± 2.3 flinches
MFF (maximal flinch frequency) [1, 4]: 5.8 ± 0.9 flinches per 5 minutes
Time to MFF [1, 4]: 32.5 ± 10.2 min
flinching behavior when administered alone compared to PBS control [1, 5]: did not result in altered flinching behaviors

COc1ccc2c(c[n+](C)c3c4cc5c(cc4ccc23)OCO5)c1OC [CL, Chelerythrine chloride]
Total Number of Flinches [1, 6]: 253±7
MFF (maximal flinch frequency) [1, 7]: 46±3 flinches per five minutes
MFF (maximal flinch frequency) [1, 8]: 39±3 flinches per five minutes
total flinches [1, 8]: 207±10
toxicity ([1]; 0.8 μg CL s.c. rat plantar hindpaw): showed signs of toxicity

C=CCN1CC[C@]23c4c5ccc(O)c4O[C@H]2C(=O)CC[C@@]3(O)[C@H]1C5 [Naloxone, naloxone]
Total Number of Flinches [1, 3]: 16.1 ± 4.1 flinches
MFF (maximal flinch frequency) [1, 4]: 3.3 ± 0.8 flinches per 5 minutes
Time to MFF [1, 4]: 28.6 ± 5.6 min
flinching behavior when administered alone compared to PBS control [1, 5]: did not induce flinching behavior that was different from PBS control

Oc1ccc2c3c1O[C@H]1c4[nH]c5ccccc5c4C[C@@]4(O)[C@@H](C2)N(CC2CC2)CC[C@]314 [naltrindole]
effect on flinching behavior ([1]; naltrindole with ET-1 alone or the ET-1/IRL-1620 combination): did not affect flinching behavior

Oc1ccc2c3c1O[C@H]1c4[nH]c5c(c4C[C@@]4(O)[C@@H](C2)N(CC2CC2)CC[C@]314)C[C@@]1(O)[C@H]2Cc3ccc(O)c4c3[C@@]1(CCN2CC1CC1)[C@H]5O4 [nor-BNI]
effect on flinching caused by ET-1 administration alone ([1]; nor-BNI 3.4 mM): partially enhanced the flinching

Ala-Leu-Cys-Asn-Cys-Asn-Arg-Ile-Ile-Ile-Pro-His-Met-Cys-Trp-Lys-Lys-Cys-Gly-Lys-Lys (ALCNCNRIIIPHMCWKKCGKK) [Tertiapin, GIRK channel antagonist]
Total Number of Flinches [1, 3]: 17 ± 6 flinches
flinching behavior when administered alone compared to PBS control [1, 5]: did not induce flinching behavior that was different from naloxone or PBS control

CTOP
MFF (maximal flinch frequency) [1, 9]: 31±4 flinches/5 minutes
effect on IRL-1620 analgesia [1, 9]: blocked the analgesic effects of IRL-1620

Cys-Ser-Cys-Ser-Ser-Leu-Met-Asp-Lys-Glu-Cys-Val-Tyr-Phe-Cys-His-Leu-Asp-Ile-Ile-Trp [ET-1]
total duration of biting and licking behavior (wild-type control mice): 152 ± 18 s
total duration of biting and licking behavior (GIRK2 knockout mice): 218 ± 18 s
Total Number of Flinches [1, 6]: 153±11
MFF (maximal flinch frequency) [1, 7]: 27±2 flinches per five minutes
flinching behavior returning to baseline ([1]; ET-1 4 nmol): ≤ 75 min
start of flinching after injection ([1]; ET-1 4 nmol): 10 to 20 min
animals with evoked ipsilateral hindpaw flinching ([1]; ET-1 4 nmol, n=12): 100%
MFF (maximal flinch frequency) [1, 10]: 40.2±3.9 flinches per 5 minutes
Time to MFF [1, 10]: 40.8 ± 2.8 min
Total Number of Flinches ([1]; ET-1 4 nmol, entire 75 minute observation period): 178.5±29.1 flinches
MFF (maximal flinch frequency) [1, 11]: 41.9±8.7 flinches per 5 minutes
Time to MFF [1, 11]: 22.5 ± 4.1 min
Total Number of Flinches ([1]; ET-1 6 nmol, entire 75 minute observation period): 253.3 ± 66.2 flinches
MFF (maximal flinch frequency) [1, 4]: 23.8±1.9 flinches per 5 minutes and 24±2 flinches per 5 minutes
maximum response frequency of C-fiber spike activity (sciatic nerve C-fibers): 4.17 ± 0.17 imp/s
mean response frequency of C-fiber spike activity (sciatic nerve C-fibers): 0.32±0.07 imp/s

Suc-Asp-Glu-Glu-Ala-Val-Tyr-Phe-Ala-His-Leu-Asp-Ile-Ile-Trp (Suc-DEEAVYFAHLDIIW) [IRL-1620, ETB receptor agonist]
change in extracellular β-endorphin ([2]; 10 nM IRL-1620, 60 minute incubation): did not result in a significant change
extracellular β-endorphin concentration ([2]; 200 nM IRL-1620 in PBS, basal level 1.76±0.08 μg/ml): 10.5 ± 3 µg/mL
increase in extracellular β-endorphin ([2]; 200 nM IRL-1620 versus basal): 5 fold
intracellular concentration of β-endorphin ([2]; similarly treated cultured keratinocytes): 108±48 pg β-endorphin per 10^5 cells
flinching behavior when administered alone compared to PBS control ([1]; IRL-1620 4 nmol alone): small but significant increase in flinching behavior
MFF (maximal flinch frequency) [1, 12]: 4.7 ± 0.6 flinches per 5 minutes
Time to MFF [1, 12]: 33.3 ± 6.1 min
Total Number of Flinches ([1]; IRL-1620 4 nmol, alone or with ET-1 2 nmol, 75 minutes): 22.1 ± 3.1 flinches
